Reference: ChEMBL document CHEMBL1154960, “Development of improved inhibitors of wall teichoic acid biosynthesis with potent activity against Staphylococcus aureus” (Bioorg Med Chem Lett, 2010)
Calls of active or inactive are those of the source. The rule behind the calls is not given here.

Columns and labels:
Type in all cases: functional
Staphylococcus aureus [1] = test: Antibacterial activity against Staphylococcus aureus RN4220 assessed as cell survival at 100 uM after 12 hrs by optical density plate reader method; details: RN4220, 12 h
Staphylococcus aureus [2] = test: Antibacterial activity against tarO deficient Staphylococcus aureus RN4220 assessed as cell survival at 100 uM after 12 hrs by optical density plate reader method; details: RN4220, 12 h
Staphylococcus aureus [3] = test: Antibacterial activity against tarO deficient Staphylococcus aureus RN4220 assessed as growth inhibition at 100 uM after 12 hrs by optical density plate reader method

| SMILES | survival at 100 µM (Staphylococcus aureus [1]) [%] | survival at 100 µM (Staphylococcus aureus [2]) [%] | Activity (Staphylococcus aureus [3]) |
| --- | --- | --- | --- |
| Cc1ccc(C2Nc3ccccc3-n3c(-c4ccccc4)c4c(=O)n(C)c(=O)n(C)c4c32)cc1 (centres undefined) | 4 | 70 |  |
| CCc1ccc(S(=O)(=O)c2nnn3c2nc(NCCC(C)C)c2cc(Cl)ccc23)cc1 |  |  | inactive |
| CCc1ccc(S(=O)(=O)c2nnn3c2nc(NCc2cccc(OC)c2)c2cc(Cl)ccc23)cc1 |  |  | inactive |
| Cn1c(=O)c2c(-c3ccccc3)n3c(c2n(C)c1=O)C(c1cccc([N+](=O)[O-])c1)Nc1ccccc1-3 (centres undefined) | 64 | 74 |  |
| CC(=O)NCCNc1nc2c(S(=O)(=O)c3ccc(C)c(C)c3)nnn2c2ccc(Cl)cc12 |  |  | inactive |
| COc1ccc(C2Nc3ccccc3-n3c(-c4ccccc4)c4c(=O)n(C)c(=O)n(C)c4c32)cc1 (centres undefined) | 37 | 81 |  |
| CCc1ccc(S(=O)(=O)c2nnn3c2nc(NC(C)C)c2cc(Cl)ccc23)cc1 |  |  | inactive |
| COc1ccc(Nc2nc3c(S(=O)(=O)c4ccccc4)nnn3c3ccc(Cl)cc23)cc1OC |  |  | inactive |
| COc1ccc(CNc2nc3c(S(=O)(=O)c4ccccc4)nnn3c3ccc(Cl)cc23)cc1 |  |  | inactive |
| CCN(Cc1ccccc1)c1nc2c(S(=O)(=O)c3ccc(C)c(C)c3)nnn2c2ccc(Cl)cc12 |  |  | inactive |
| c1ccc(-c2nnn3c2nc(N2CCOCC2)c2ccccc23)cc1 |  |  | inactive |
| Cc1ccc(-c2c3c(=O)n(C)c(=O)n(C)c3c3n2-c2ccccc2NC3c2ccc(C)cc2O)cc1 (centres undefined) | 34 | 64 |  |
| CC(=O)c1ccc(Nc2nc3c(S(=O)(=O)c4ccccc4)nnn3c3ccc(Cl)cc23)cc1 |  |  | inactive |
| Cc1ccc(N2CCN(c3nc4c(S(=O)(=O)c5ccc(C)c(C)c5)nnn4c4ccccc34)CC2)c(C)c1 |  |  | inactive |
| CCOC(=O)C1CCCN(c2nc3c(S(=O)(=O)c4ccc(C)c(C)c4)nnn3c3ccc(Cl)cc23)C1 (centres undefined) |  |  | inactive |
| COCCCNc1nc2c(S(=O)(=O)c3ccccc3)nnn2c2ccc(Cl)cc12 |  |  | inactive |
| Cc1ccc(S(=O)(=O)c2nnn3c2nc(N2CCN(c4cccc(C)c4C)CC2)c2ccccc23)cc1C |  |  | inactive |
| COCCCNc1nc2c(S(=O)(=O)c3ccc(C)c(C)c3)nnn2c2ccc(Cl)cc12 |  |  | inactive |
| Cn1c(=O)c2c(-c3ccccc3)n3c(c2n(C)c1=O)C(c1ccc([N+](=O)[O-])cc1)Nc1ccccc1-3 (centres undefined) | 49 | 73 |  |
| CCN(Cc1ccccc1)c1nc2c(S(=O)(=O)c3ccccc3)nnn2c2ccc(Cl)cc12 |  |  | inactive |
| COc1ccc(-c2c3c(=O)n(C)c(=O)n(C)c3c3n2-c2ccccc2NC3c2cc(O)ccc2O)cc1 (centres undefined) | 0 | 26 |  |

| SMILES | survival at 100 µM (Staphylococcus aureus [1]) [%] | survival at 100 µM (Staphylococcus aureus [2]) [%] | Activity (Staphylococcus aureus [3]) |
| --- | --- | --- | --- |
| Cc1ccc(C)c(S(=O)(=O)c2nnn3c2nc(Nc2ccc(C)c(C)c2)c2ccccc23)c1 |  |  | inactive |
| Nc1nc2c(C(=O)N3CCOCC3)nnn2c2ccccc12 |  |  | inactive |
| O=C(Nc1ccc(Nc2nc3c(S(=O)(=O)c4ccc(Br)cc4)nnn3c3ccccc23)cc1)c1ccco1 |  |  | inactive |
| CCc1ccc(S(=O)(=O)c2nnn3c2nc(NCc2ccccc2OC)c2cc(Cl)ccc23)cc1 |  |  | inactive |
| CC(=O)c1ccc(N2CCN(c3nc4c(S(=O)(=O)c5ccc(C)c(C)c5)nnn4c4ccc(Cl)cc34)CC2)cc1 |  |  | inactive |
| Cc1ccc(S(=O)(=O)c2nnn3c2nc(NCC2CCCO2)c2ccccc23)cc1 (centres undefined) |  |  | inactive |
| CCOC(=O)C1CCN(c2nc3c(S(=O)(=O)c4ccc(CC)cc4)nnn3c3ccc(Cl)cc23)CC1 |  |  | inactive |
| CC(=O)NCCNc1nc2c(-c3ccccc3)nnn2c2ccccc12 |  |  | inactive |
| CCc1ccc(S(=O)(=O)c2nnn3c2nc(N2CCCC(C)C2)c2cc(Cl)ccc23)cc1 (centres undefined) |  |  | inactive |
| COc1ccccc1N1CCN(c2nc3c(S(=O)(=O)c4ccccc4)nnn3c3ccc(Cl)cc23)CC1 |  |  | inactive |
| O=S(=O)(c1ccc(Cl)cc1)c1nnn2c1nc(Cl)c1ccccc12 |  |  | inactive |
| Cc1ccc(S(=O)(=O)c2nnn3c2nc(N2CCC(C)CC2)c2cc(Cl)ccc23)cc1C |  |  | inactive |
| CCc1ccc(S(=O)(=O)c2nnn3c2nc(NCCNC(C)=O)c2cc(Cl)ccc23)cc1 |  |  | inactive |
| Cc1ccc(S(=O)(=O)c2nnn3c2nc(N2CCCC2)c2ccccc23)cc1 |  |  | inactive |
| CCc1ccc(S(=O)(=O)c2nnn3c2nc(N(C)Cc2ccccc2)c2cc(Cl)ccc23)cc1 |  |  | inactive |
| CCOC(=O)C1CCN(c2nc3c(S(=O)(=O)c4ccccc4)nnn3c3ccc(Cl)cc23)CC1 |  |  | inactive |
| Cc1ccc(CNc2nc3c(S(=O)(=O)c4cc(C)ccc4C)nnn3c3ccccc23)cc1 |  |  | inactive |
| Cc1ccc(S(=O)(=O)c2nnn3c2nc(N2CCN(c4ccc(F)cc4)CC2)c2cc(Cl)ccc23)cc1C |  |  | inactive |
| COc1ccccc1N1CCN(c2nc3c(S(=O)(=O)c4ccc(C)c(C)c4)nnn3c3ccc(Cl)cc23)CC1 |  |  | inactive |
| COc1ccccc1CNc1nc2c(S(=O)(=O)c3ccccc3)nnn2c2ccc(Cl)cc12 |  |  | inactive |
| Cc1ccc(S(=O)(=O)c2nnn3c2nc(N2CCCC(C)C2)c2cc(Cl)ccc23)cc1C (centres undefined) |  |  | inactive |

| SMILES | survival at 100 µM (Staphylococcus aureus [1]) [%] | survival at 100 µM (Staphylococcus aureus [2]) [%] | Activity (Staphylococcus aureus [3]) |
| --- | --- | --- | --- |
| CSc1cccc(Nc2nc3c(S(=O)(=O)c4ccccc4)nnn3c3ccc(Cl)cc23)c1 |  |  | inactive |
| COc1ccccc1Nc1nc2c(S(=O)(=O)c3c(C)cc(C)cc3C)nnn2c2ccccc12 |  |  | inactive |
| CCc1ccc(S(=O)(=O)c2nnn3c2nc(N2CCC(C)CC2)c2cc(Cl)ccc23)cc1 |  |  | inactive |
| CCOC(=O)C1CCCN(c2nc3c(S(=O)(=O)c4ccc(CC)cc4)nnn3c3ccc(Cl)cc23)C1 (centres undefined) |  |  | inactive |
| O=S(=O)(c1ccccc1)c1nnn2c1nc(Cl)c1ccccc12 |  |  | inactive |
| COc1ccc(Nc2nc3c(S(=O)(=O)c4ccccc4)nnn3c3ccc(Cl)cc23)cc1 |  |  | inactive |
| CCc1ccc(S(=O)(=O)c2nnn3c2nc(NCc2ccccc2)c2cc(Cl)ccc23)cc1 |  |  | inactive |
| CCOC(=O)C1CCCN(c2nc3c(S(=O)(=O)c4ccccc4)nnn3c3ccccc23)C1 (centres undefined) |  |  | inactive |
| CCOC(=O)C1CCN(c2nc3c(S(=O)(=O)c4ccc(C)c(C)c4)nnn3c3ccc(Cl)cc23)CC1 |  |  | inactive |
| Cc1ccc(C)c(S(=O)(=O)c2nnn3c2nc(NCCC(C)C)c2ccccc23)c1 |  |  | inactive |
| Cc1ccc(S(=O)(=O)c2nnn3c2nc(NC(C)C)c2cc(Cl)ccc23)cc1C |  |  | inactive |
| NC(=O)C1CCN(c2nc3c(S(=O)(=O)c4ccc(Br)cc4)nnn3c3ccccc23)CC1 |  |  | inactive |
| O=S(=O)(c1ccccc1)c1nnn2c1nc(Nc1ccccc1)c1cc(Cl)ccc12 |  |  | inactive |
| COc1cc(Nc2nc3c(S(=O)(=O)c4ccccc4)nnn3c3ccc(Cl)cc23)cc(OC)c1 |  |  | inactive |
| COc1ccccc1CNc1nc2c(S(=O)(=O)c3ccc(C)c(C)c3)nnn2c2ccc(Cl)cc12 |  |  | inactive |
| Cc1ccc(S(=O)(=O)c2nnn3c2nc(NCCC(C)C)c2cc(Cl)ccc23)cc1C |  |  | inactive |
| CCc1ccc(S(=O)(=O)c2nnn3c2nc(N(CC)Cc2ccccc2)c2cc(Cl)ccc23)cc1 |  |  | inactive |
| CC(=O)c1ccc(Nc2nc3c(S(=O)(=O)c4ccc(C)c(C)c4)nnn3c3ccccc23)cc1 |  |  | inactive |
| COc1ccc(Nc2nc3c(S(=O)(=O)c4ccccc4)nnn3c3ccc(Cl)cc23)c(OC)c1 |  |  | inactive |
| Cc1ccc(S(=O)(=O)c2nnn3c2nc(N2CCN(c4ccccc4F)CC2)c2ccccc23)cc1C |  |  | inactive |
| CCOc1ccc(Nc2nc3c(S(=O)(=O)c4ccc(CC)cc4)nnn3c3ccc(Cl)cc23)cc1 |  |  | inactive |

| SMILES | survival at 100 µM (Staphylococcus aureus [1]) [%] | survival at 100 µM (Staphylococcus aureus [2]) [%] | Activity (Staphylococcus aureus [3]) |
| --- | --- | --- | --- |
| CC1CCN(c2nc3c(S(=O)(=O)c4ccccc4)nnn3c3ccc(Cl)cc23)CC1 |  |  | inactive |
| CCOC(=O)c1nnn2c1nc(N(CC)CC)c1ccccc12 |  |  | inactive |
| CCN(CC)c1nc2c(S(=O)(=O)c3ccccc3)nnn2c2ccccc12 |  |  | inactive |
| Cc1ccc(CNc2nc3c(S(=O)(=O)c4ccc(C)c(C)c4)nnn3c3ccc(Cl)cc23)cc1 |  |  | inactive |
| CCc1ccc(S(=O)(=O)c2nnn3c2nc(Nc2ccc(F)cc2)c2cc(Cl)ccc23)cc1 |  |  | inactive |
| CCOCCCNc1nc2c(S(=O)(=O)c3ccc(CC)cc3)nnn2c2ccc(Cl)cc12 |  |  | inactive |
| Cc1ccc(S(=O)(=O)c2nnn3c2nc(N2CCN(c4ccccc4F)CC2)c2cc(Cl)ccc23)cc1C |  |  | inactive |
| CCc1ccc(S(=O)(=O)c2nnn3c2nc(N2CCC(C(N)=O)CC2)c2cc(Cl)ccc23)cc1 |  |  | inactive |
| CCc1ccc(S(=O)(=O)c2nnn3c2nc(N2CCN(c4ccccc4)CC2)c2cc(Cl)ccc23)cc1 |  |  | inactive |
| Cc1ccc(C)c(N2CCN(c3nc4c(S(=O)(=O)c5ccccc5)nnn4c4ccc(Cl)cc34)CC2)c1 |  |  | inactive |
| O=C1CCCN1CCCNc1nc2c(S(=O)(=O)c3ccc(Br)cc3)nnn2c2ccccc12 |  |  | inactive |
| O=S(=O)(c1ccccc1)c1nnn2c1nc(N1CCCC1)c1cc(Cl)ccc12 |  |  | inactive |
| O=S(=O)(c1ccccc1)c1nnn2c1nc(NCc1ccccc1)c1cc(Cl)ccc12 |  |  | inactive |
| CC(=O)c1ccccc1N1CCN(c2nc3c(S(=O)(=O)c4ccccc4)nnn3c3ccc(Cl)cc23)CC1 |  |  | inactive |
| CN(Cc1ccccc1)c1nc2c(S(=O)(=O)c3ccccc3)nnn2c2ccccc12 |  |  | inactive |
| COCCNc1nc2c(S(=O)(=O)c3ccccc3)nnn2c2ccc(Cl)cc12 |  |  | inactive |
| Cc1ccc(S(=O)(=O)c2nnn3c2nc(N2CCC(C(N)=O)CC2)c2cc(Cl)ccc23)cc1C |  |  | inactive |
| Cc1ccc(Nc2nc3c(S(=O)(=O)c4ccccc4)nnn3c3ccc(Cl)cc23)c(C)c1 |  |  | inactive |
| CCc1ccc(S(=O)(=O)c2nnn3c2nc(Nc2cc(OC)cc(OC)c2)c2cc(Cl)ccc23)cc1 |  |  | inactive |
| O=S(=O)(c1ccccc1)c1nnn2c1nc(N1CCN(c3ccccc3)CC1)c1cc(Cl)ccc12 |  |  | inactive |
